Reference: US11267826B2, “Penicillin-binding protein inhibitors” (priority 2017, dated 2022)

Assays:
S. aureus ATCC 29213 = assay: Broth microdilution MIC assay, S. aureus; assay type: cell-based; settings: Staphylococcus aureus, ATCC29213; broth microdilution, 16-20 hours at 37° C.; read-out: S. aureus 29213 MIC
Procedure, shortened: (§1)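 MIC taken by eye as the lowest compound concentration showing no growth after 16-20 hours at 37° C. Cultures grown 3-5 h in cation-supplemented Mueller-Hinton broth were added to 2-fold compound dilution series at a starting density of 5×10^5 CFU/mL, following CLSI methods.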

[1] = test system: hyper-permeable E. coli 901C; assay: Broth microdilution MIC assay, hyper-permeable E. coli; assay type: cell-based; settings: Escherichia coli, read-out: E. coli 901C MIC
Procedure, shortened: as §1

[2] = test system: E. coli DH5a harboring VIM-2; assay: Broth microdilution MIC, engineered E. coli expressing VIM-2; assay type: cell-based; settings: Escherichia coli, read-out: MIC, β-lactamase VIM
Procedure: (§2) To determine the ability of test compounds to potentiate the inhibition of the growth of bacterial strains, classic cell based broth microdilution MIC assays were employed. MIC assays are performed according to CLSI methods except where otherwise noted (CLSI, 2011 and CLSI, 2009). The reference strain S. aureus ATCC 29213 and the hyper-permeable E. coli 901C were used to determine the ability of the PBP compounds to inhibit bacterial growth. Briefly, cryo-preserved bacterial cultures of clinical strains are streaked for isolation on appropriate agar medium, in this case Mueller Hinton II agar. Following incubation to allow formation of colonies these plates are sealed with parafilm and stored refrigerated for up to two weeks. For preparation of assay inocula and to ensure low variability, at least 5 colonies are picked from the agar plates with an inoculating loop and aseptically transferred to a culture tube containing 3 mL of Mueller-Hinton Broth (supplemented with divalent cations to required levels based on Manufacturers' certification). The broth culture is grown for 3-5 hours at 37° C. with shaking at 200 rpm. Meanwhile, 2-fold serial dilutions of test compounds are conducted in a 96 well plate with a final volume of 75 μL per well at 2-fold the final desired concentration. After the dilution plates are set up the growing cultures are then diluted in a cuvette containing MH II broth and the optical density is measured at 600 nm. Inocula are diluted such that 75 μL of this culture in Mueller-Hinton Broth results in a starting bacterial concentration of 5×10^5 CFU/mL when added to the dilution plates. The plates are incubated 16-20 hours at 37° C. The MIC is read visually as the lowest concentration well with no bacterial growth.
(§3) To determine if test compounds were affected by various known β-lactamases, the inhibition of the growth of engineered strains of Escherichia coli harboring select single β-lactamases were tested. […]

E. coli K12 PBP1a/b = assay: Bocillin FL competition binding assay, PBP1a/1b combined; set-up: species or system Escherichia coli K12; settings: 15 min pre-incubation, PBP 1a/1b combined
Procedure, shortened: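 E. coli K12 membrane extracts (100 µg protein) pre-incubated 15 min with compound (0.005–2,480 µg/mL) in pH 7 phosphate/350 mM NaCl, then labelled with Bocillin FL 30 min at 35°C; SDS-PAGE fluorescence (ex 450/em 520 nm), μg/mL reported. PBP1a/1b unresolved, reported combined.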

[3] = test system: E. coli DH5a harboring NDM-1; assay: Broth microdilution MIC, engineered E. coli expressing NDM-1; assay type: cell-based; settings: Escherichia coli, read-out: MIC, β-lactamase NDM
Procedure: as §2, §3

[4] = test system: E. coli DH5a harboring IMP-18; assay: Broth microdilution MIC, engineered E. coli expressing IMP-18; assay type: cell-based; settings: Escherichia coli, read-out: MIC, β-lactamase IMP
Procedure: as §2, §3

[5] = test system: E. coli DH5a harboring SHV-5; assay: Broth microdilution MIC, engineered E. coli expressing SHV-5; assay type: cell-based; settings: Escherichia coli, read-out: MIC, β-lactamase SHV
Procedure: as §2, §3

[6] = test system: E. coli DH5a harboring TEM-24; assay: Broth microdilution MIC, engineered E. coli expressing TEM-24; assay type: cell-based; settings: Escherichia coli, read-out: MIC, β-lactamase TEM
Procedure: as §2, §3

Nc1nc(/C(=N/O)C(=O)N[C@H]2Cc3cccc(C(=O)O)c3OB2O)cs1 [Example 6, (R,Z)-3-(2-(2-aminothiazol-4-yl)-2-(hydroxyimino)acetamido)-2-hydroxy-3,4-dihydro-2H-benzo[e][1,2]oxaborinine-8-carboxylic Acid]
MIC (S. aureus ATCC 29213): < 64 µg/mL | MIC [1]: < 64 µg/mL | MIC [2]: 16 µg/mL | E. coli K12 PBP1a/b Potency (E. coli K12 PBP1a/b): C (C represents a potency of <64 μg/mL) | MIC [3]: 16 µg/mL | MIC [4]: 16 µg/mL | MIC [5]: 16 µg/mL | MIC [6]: 16 µg/mL
